Data set [1] relates to Mycobacterium tuberculosis. The data set is described as follows: Antibacterial activity against Mycobacterium tuberculosis H37Rv ATCC 27294 after 2 weeks by spot culture growth inhibition assay. Type of data set: functional. The settings on record: H37Rv ATCC 27294, 336 h.
Data set [2] can be described thus: Selectivity index, ratio of GI50 for mouse RAW264.7 cells to MIC for Mycobacterium tuberculosis H37Rv ATCC 27294. The settings on record: read-out: Selectivity Index. Type of data set: toxicity.
For data set [3], the system named is Mycolicibacterium smegmatis. The data set is described as follows: Antibacterial activity against Mycobacterium smegmatis MC2 155 assessed as growth inhibition. Type of data set: functional. As to conditions: str. MC2 155.
The nature of data set [4]: Cytotoxicity against mouse RAW264.7 cells assessed as growth inhibition after 48 hrs by trypan blue assay. The format is cell-based.

For 21 compounds, MIC, selectivity ratio and GI50 results are on record in ChEMBL document CHEMBL3132819, “2-Hydroxy-substituted cinnamic acids and acetanilides are selective growth inhibitors of Mycobacterium tuberculosis” (Medchemcomm, 2014).

In brackets after ≈: the same amount, converted by molar mass.

For the compound `CC(C)=CCOc1ccccc1/C=C/C(=O)O`, the results for the MIC in data set [1] and in data set [3] were 258 µM (≈ 59.9 µg/mL) and over 600 µM, respectively. In addition, the selectivity ratio in data set [2] worked out at 6.52.

With `COC(=O)/C=C/c1cccc(O)c1`, the MIC in data set [1] is 224 µM (≈ 39.9 µg/mL); in data set [3], over 600 µM. Also, the selectivity ratio in data set [2] was found to be 3.8. Besides, in data set [4], the GI50 at 48 h was found to be 850 µM.

For the compound `CC(=O)Nc1cccc(O)c1` [METACETAMOL], the MIC in data set [1] is over 661 µM; in data set [3], over 600 µM. For the same compound, the selectivity ratio in data set [2] is under 8.08. Further, the GI50 at 48 h in data set [4] is 5340 µM.

`CC(C)=CCC/C(C)=C/COc1ccc(/C=C/C(=O)O)cc1`: the MIC in data set [1] is 66.8 µM (≈ 20.1 µg/mL); in data set [3], over 600 µM. In addition, the selectivity ratio in data set [2] came to 3.14. The GI50 at 48 h in data set [4] is 210 µM.

For the compound `COC(=O)/C=C/c1cccc(OCC=C(C)C)c1`, the figures for the MIC in data set [1] and in data set [3] were 244 µM (≈ 60.1 µg/mL) and over 600 µM, respectively. Besides, in data set [2], the selectivity ratio came out at 12.2.

As for `COC(=O)/C=C/c1ccc(OC/C=C(\C)CCC=C(C)C)cc1`, the MIC in data set [1] is 127 µM (≈ 39.9 µg/mL); in data set [3], over 600 µM. The selectivity ratio in data set [2] is 1.25. Also, the GI50 at 48 h in data set [4] was 159 µM.

In data set [1], `NNC(=O)c1ccncc1` [ISONIAZID] had an MIC of 0.73 µM (≈ 0.1 µg/mL). Moreover, the selectivity ratio in data set [2] is 30000. The GI50 at 48 h in data set [4] came out at 21900 µM.

Regarding `CC(C)=CCOc1cccc(/C=C/C(=O)O)c1`, the values for the MIC in data set [1] and in data set [3] were 172 µM (≈ 40 µg/mL) and over 600 µM, respectively. In data set [2], the selectivity ratio is 7.53.

For the compound `CC(=O)Nc1ccccc1O`, the MIC in data set [1] was 132 µM (≈ 20 µg/mL); in data set [3], over 600 µM. Further, the selectivity ratio in data set [2] came to 31.8. Further, the GI50 at 48 h in data set [4] was 4200 µM.

`COC(=O)/C=C/c1ccc(O)cc1` [METHYL P-HYDROXYCINNAMATE]: the results for the MIC in data set [1] and in data set [3] were 224 µM (≈ 39.9 µg/mL) and over 600 µM, respectively. The selectivity ratio in data set [2] stood at 2.72. Besides, the GI50 at 48 h in data set [4] was determined as 609 µM.

For the compound `COC(=O)/C=C/c1ccccc1OCC=C(C)C`, the MIC in data set [1] is over 406 µM; in data set [3] it was over 600 µM. Moreover, in data set [2], the selectivity ratio was under 6.4.

Consider `COC(=O)/C=C/c1ccc(OCC=C(C)C)cc1`, for which the values for the MIC in data set [1] and in data set [3] were 81.2 µM (≈ 20 µg/mL) and over 600 µM, respectively. The selectivity ratio in data set [2] was 6. In addition, in data set [4], the GI50 at 48 h amounted to 487 µM.

On to `O=C(O)/C=C/c1ccc(O)cc1` [COUMARIC ACID], for which the MIC in data set [1] is 244 µM (≈ 40.1 µg/mL); in data set [3], over 600 µM. The selectivity ratio in data set [2] is 18.7. The GI50 at 48 h in data set [4] worked out at 4560 µM.

For `O=C(O)/C=C/c1cccc(O)c1`, the MIC in data set [1] is 366 µM (≈ 60.1 µg/mL); in data set [3], over 600 µM. Besides, the selectivity ratio in data set [2] worked out at 14.5. For the same compound, the GI50 at 48 h in data set [4] was determined as 5290 µM.

Turning to `O=C(O)/C=C/c1ccccc1` [CINNAMIC ACID], the MIC is 270 µM (≈ 40 µg/mL) in data set [1] and over 600 µM in data set [3]. Further, the selectivity ratio in data set [2] was 24.2. Moreover, in data set [4], the GI50 at 48 h was 6550 µM.

The compound `CO[C@H]1/C=C/O[C@@]2(C)Oc3c(C)c(O)c4c(O)c(c(/C=N/N5CCN(C)CC5)c(O)c4c3C2=O)NC(=O)/C(C)=C\C=C\[C@H](C)[C@H](O)[C@@H](C)[C@@H](O)[C@@H](C)[C@H](OC(C)=O)[C@@H]1C` [RIFAMPIN] had an MIC in data set [1] of 0.0607 µM (≈ 0.05 µg/mL). Also, the selectivity ratio in data set [2] was 14000. The GI50 at 48 h in data set [4] was found to be 850 µM.

Take `CC(C)=CCOc1ccc(/C=C/C(=O)O)cc1`: the values for the MIC in data set [1] and in data set [3] were 86.1 µM (≈ 20 µg/mL) and over 600 µM, respectively. Moreover, the selectivity ratio in data set [2] worked out at 15.6. Moreover, the GI50 at 48 h in data set [4] amounted to 1340 µM.

On to `COC(=O)/C=C/c1ccccc1O`, for which the MIC in data set [1] is 112 µM (≈ 20 µg/mL); in data set [3], over 600 µM. In data set [2], the selectivity ratio was 10. The GI50 at 48 h in data set [4] is 1120 µM.

Turning to `O=C(O)/C=C/c1ccccc1O` [O-COUMARIC ACID], the MIC was 122 µM (≈ 20 µg/mL) in data set [1] and over 600 µM in data set [3]. Besides, the selectivity ratio in data set [2] is 37.4. Also, in data set [4], the GI50 at 48 h was 4560 µM.

Take `CC(=O)Nc1ccc(O)cc1` [ACETAMINOPHEN]: the MIC in data set [1] is over 661 µM; in data set [3] it was over 600 µM. Also, in data set [2], the selectivity ratio was under 1.52. Further, the GI50 at 48 h in data set [4] was determined as 1000 µM.

Consider `O=C(O)/C=C/c1ccc2c(c1)OCO2`, for which the figures for the MIC in data set [1] and in data set [3] were 312 µM (≈ 60 µg/mL) and over 600 µM, respectively. The selectivity ratio in data set [2] was determined as 8.8.

Broadly, the MIC is the lowest concentration found to suppress growth. The GI50 is the concentration that inhibits growth by half.
